The text below walks through data of patent publication US11524960B2, “Heterobicyclic inhibitors of MAT2A and methods of use for treating cancer” (AGIOS PHARMACEUTICALS, INC., priority 2018, dated 2022).

The target in this assay is T1, MAT2A homodimer (Homo sapiens, UniProt P31153).
T1 construct: inferred from Ni sepharose purification and imidazole elution; made in house; host or cells: Sf9 insect cells, recombinant baculovirus (Bac to Bac, pFASTBAC1)
The experiment in a line: Biochemical assay: inhibition of MAT2A (phosphate release, PiColorLock Gold). The following applies: MAT2A IC50 score; read-out: Enzyme Inhibition (Example 275). As to the method: Mat2A protein was expressed by recombinant baculovirus in SF9 infected cells using the Bac to Bac system cloned into the pFASTBAC1 vector (Invitrogen, Carlsbad, Calif.). Recombinant MAT2A was isolated from the cell lysate of 150 g of infected cells using HP Ni sepharose column chromatography. Recombinant MAT2A homodimer was eluted with 250 and 500 mM imidazole, and fractions containing MAT2A were identified by sodium dodecyl sulfate polyacrylamide gel electrophoresis and pooled.
For determination of the inhibitory potency of compounds against the MAT2A homodimer, protein was diluted to […] in assay buffer (50 mM Tris, pH 8.0, 50 mM KCl, 15 mM MgCl2, 0.3 mM EDTA, 0.005% [w/v] bovine serum albumin [BSA]). Test compound was prepared in 100% dimethyl sulfoxide (DMSO) at 50× the desired final concentration. […] of compound dilution was added to 40 μL of enzyme dilution and the mixture was allowed to equilibrate for 60 minutes at 25° C. The enzymatic assay was initiated by the addition of 10 μL of substrate mix (500 μM ATP, pH 7.0, 400 μM L-methionine in 1× assay buffer), and the mixture was incubated for a further 60 minutes at 25° C. The reaction was halted and the liberated phosphate released by the enzyme in stoichiometric amounts by the production of S-adenosyl methionine (SAM) was measured using the PiColorLock Gold kit (Innova Biosciences, UK). Absolute product amounts were determined by comparison to a standard curve of potassium phosphate buffer, pH 8.0.

pIC50: −log10 of the molar value.

T1 sequence (P31153 whole entry): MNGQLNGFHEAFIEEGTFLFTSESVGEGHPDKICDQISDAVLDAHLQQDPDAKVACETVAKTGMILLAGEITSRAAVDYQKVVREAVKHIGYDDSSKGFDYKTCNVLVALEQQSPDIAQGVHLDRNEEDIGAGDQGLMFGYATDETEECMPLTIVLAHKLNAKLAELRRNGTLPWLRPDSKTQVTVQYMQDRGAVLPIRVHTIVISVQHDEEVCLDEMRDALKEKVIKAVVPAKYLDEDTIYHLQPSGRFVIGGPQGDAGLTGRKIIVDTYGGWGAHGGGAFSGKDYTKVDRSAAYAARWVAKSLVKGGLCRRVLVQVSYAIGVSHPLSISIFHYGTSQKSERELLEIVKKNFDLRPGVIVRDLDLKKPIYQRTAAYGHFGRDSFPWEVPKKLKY

`Cn1cc2cc(-n3cc4ccc(CS(C)(=O)=O)nc4c(-c4ccc(Cl)cc4)c3=O)ccc2n1` [Example 135-A, 8-(4-chlorophenyl)-6-(2-methyl-2H-indazol-5-yl)-2-((methylsulfonyl)methyl)-1,6-naphthyridin-7(6H)-one]: the pIC50 is 6.00 to 7.00.

Regarding `COc1ccc(-n2cc3cnc(NCC(F)(F)F)nc3c(-c3ccc(C4CCC4)cc3)c2=O)cc1` [Example 199, 8-(4-cyclobutylphenyl)-6-(4-methoxyphenyl)-2-((2,2,2-trifluoroethyl)amino)pyrido[4,3-d]pyrimidin-7(6H)-one], the pIC50 was 5.00 to 6.00.

On to `CCNc1ncc2cn(-c3ccc4nn(C)cc4c3)c(=O)c(-c3ccc(OC(F)(F)F)cc3)c2n1` [Example 170, 2-(ethylamino)-6-(2-methyl-2H-indazol-5-yl)-8-(4-(trifluoromethoxy)phenyl)pyrido[4,3-d]pyrimidin-7(6H)-one], for which the pIC50 is over 7.00.

Consider `COc1ccc(N2Cc3cnc(NC4CCC4)nc3C3(CCN(Cc4cc[nH]n4)C3)C2=O)cc1` (stereo not shown) [Example 112, 1′-((1H-pyrazol-3-yl)methyl)-2-(cyclobutylamino)-6-(4-methoxyphenyl)-5H-spiro[pyrido[4,3-d]pyrimidine-8,3′-pyrrolidin]-7(6H)-one], for which the pIC50 was 6.00 to 7.00.

As for `COc1ccc(-n2cc3cnc(NCCC(F)(F)F)nc3c(-c3ccc(Br)cc3)c2=O)cc1` [Example 186, 8-(4-bromophenyl)-6-(4-methoxyphenyl)-2-((3,3,3-trifluoropropyl)amino)pyrido[4,3-d]pyrimidin-7(6)-one], the pIC50 is 6.00 to 7.00.

As for `Cn1cc2cc(-n3cc4cnc(NCC(F)(F)F)nc4c(-c4ccc(Cl)cc4)c3=O)cnc2n1` [Example 126, 8-(4-chlorophenyl)-6-(2-methyl-2H-pyrazolo[3,4-b]pyridin-5-yl)-2-((2,2,2-trifluoroethyl)amino)pyrido[4,3-d]pyrimidin-7(6H)-one], the pIC50 was 5.00 to 6.00.

With `COc1ccc(-n2cc3ccc(NCC(F)(F)F)nc3c(-c3ccc(Cl)cc3)c2=O)cc1` [Example 238, 8-(4-chlorophenyl)-6-(4-methoxyphenyl)-2-(2,2,2-trifluoroethylamino)-1,6-naphthyridin-7(6H)-one], the pIC50 was over 7.00.

With `Cn1cc(-n2cc3cnc(NCC(F)(F)F)nc3c(-c3ccc(Cl)cc3)c2=O)ccc1=O` [Example 140, 8-(4-chlorophenyl)-6-(1-methyl-6-oxo-1,6-dihydropyridin-3-yl)-2-((2,2,2-trifluoroethyl)amino)pyrido[4,3-d]pyrimidin-7(6H)-one], the pIC50 is 6.00 to 7.00.

Turning to `COc1ccc(N2Cc3cnc(NCC(F)(F)F)nc3C3(CCC(O)CC3)C2=O)cc1` (stereo not shown) [Example 116, 4-hydroxy-6′-(4-methoxyphenyl)-2′-((2,2,2-trifluoroethyl)amino)-5′H-spiro[cyclohexane-1,8′-pyrido[4,3-d]pyrimidin]-7′(6′H)-one], the pIC50 is 5.00 to 6.00.

As for `O=c1c(-c2ccc(C3CC3)cc2)c2nc(OCC(F)(F)F)ncc2cn1-c1ccc2ncccc2c1` [Example 267, 8-(4-cyclopropylphenyl)-6-(quinolin-6-yl)-2-(2,2,2-trifluoroethoxy)pyrido[4,3-d]pyrimidin-7(6H)-one], the pIC50 was over 7.00.

As for `COc1ccc(N2Cc3cnc(NCC(F)(F)F)nc3C3(CCN(c4nnc(N)s4)CC3)C2=O)cc1` [Example 117, 1-(5-amino-1,3,4-thiadiazol-2-yl)-6′-(4-methoxyphenyl)-2′-((2,2,2-trifluoroethyl)amino)-5′H-spiro[piperidine-4,8′-pyrido[4,3-d]pyrimidin]-7′(6′H)-one], the pIC50 is 5.00 to 6.00.

Turning to `COc1ccc(-n2cc3cnc(NCC(F)(F)F)nc3c(-c3ccc(OC(F)(F)F)cc3)c2=O)cc1` [Example 196, 6-(4-methoxyphenyl)-2-((2,2,2-trifluoroethyl)amino)-8-(4-(trifluoromethoxy)phenyl)pyrido[4,3-d]pyrimidin-7(6H)-one], the pIC50 is over 7.00.

Regarding `O=C1N(c2cnoc2)Cc2cnc(NCC3CC3)nc2C12CCN(Cc1ccccc1F)C2` (stereo not shown) [Example 121, 2-((cyclopropylmethyl)amino)-1′-(2-fluorobenzyl)-6-(isoxazol-4-yl)-5,6-dihydro-7H-spiro[pyrido[4,3-d]pyrimidine-8,3′-pyrrolidin]-7-one], the pIC50 was 6.00 to 7.00.

`CCCNc1ncc2cn(-c3ccc(OC)cc3)c(=O)c(-c3ccc(Br)cc3)c2n1` [Example 191, 8-(4-bromophenyl)-6-(4-methoxyphenyl)-2-(propylamino)pyrido[4,3-d]pyrimidin-7(6H)-one]: the pIC50 is over 7.00.

Regarding `COc1ccc(-c2c(=O)n(-c3cn[nH]c3)cc3cnc(NCC(F)(F)F)nc23)cc1` [Example 208, 8-(4-methoxyphenyl)-6-(H-pyrazol-4-yl)-2-((2,2,2-trifluoroethyl)amino)pyrido[4,3-d]pyrimidin-7(6H)-one], the pIC50 is over 7.00.

Turning to `COc1ccc(N2Cc3cnc(SCC4CC4)nc3C3(CCN(Cc4cc[nH]n4)C3)C2=O)cc1` (stereo not shown) [Example 115, 1′-((1H-pyrazol-3-yl)methyl)-2-((cyclopropylmethyl)thio)-6-(4-methoxyphenyl)-5H-spiro[pyrido[4,3-d]pyrimidine-8,3′-pyrrolidin]-7(6H)-one], the pIC50 was 6.00 to 7.00.

Take `COc1ccc(-c2c(=O)n(-c3ccc(=O)n(C)c3)cc3cnc(NCC(F)(F)F)nc23)cc1` [Example 194, 8-(4-methoxyphenyl)-6-(1-methyl-6-oxo-1,6-dihydropyridin-3-yl)-2-((2,2,2-trifluoroethyl)amino)pyrido[4,3-d]pyrimidin-7(6H)-one]: the pIC50 was 6.00 to 7.00.

For `Cc1nc2cc(-n3cc4cnc(NCC(F)(F)F)nc4c(-c4ccc(Cl)cc4)c3=O)ccc2o1` [Example 138, 8-(4-chlorophenyl)-6-(2-methylbenzo[d]oxazol-5-yl)-2-((2,2,2-trifluoroethyl)amino)pyrido[4,3-d]pyrimidin-7(6H)-one], the pIC50 was 6.00 to 7.00.

Turning to `O=C1N(c2cnoc2)Cc2cnc(NCC3CC3)nc2C12CCN(Cc1ccon1)C2` (stereo not shown) [Example 106, 2-((cyclopropylmethyl)amino)-1′-(isoxazol-3-ylmethyl)-6-(isoxazol-4-yl)-5H-spiro[pyrido[4,3-d]pyrimidine-8,3′-pyrrolidin]-7(6H)-one], the pIC50 was 5.00 to 6.00.

For `COc1ccc(CN2Cc3cnc(NCC4CC4)nc3C3(CCN(Cc4ccccc4)C3)C2=O)cc1` (stereo not shown) [Example 118, 1′-benzyl-2-((cyclopropylmethyl)amino)-6-(4-methoxybenzyl)-5,6-dihydro-7H-spiro[pyrido[4,3-d]pyrimidine-8,3′-pyrrolidin]-7-one], the pIC50 is 5.00 to 6.00.

For the compound `CNc1ncc2cn(-c3ccc4ncccc4c3)c(=O)c(-c3ccc(OC(F)F)cc3)c2n1` [Example 184, 8-(4-(difluoromethoxy)phenyl)-2-(methylamino)-6-(quinolin-6-yl)pyrido[4,3-d]pyrimidin-7(6H)-one], the pIC50 is over 7.00.

Regarding `O=c1c(-c2ccc(Cl)cc2)c2nc(NCC(F)(F)F)ncc2cn1-c1ccc2nscc2c1` [Example 125, 6-(benzo[c]isothiazol-5-yl)-8-(4-chlorophenyl)-2-((2,2,2-trifluoroethyl)amino)pyrido[4,3-d]pyrimidin-7(6H)-one], the pIC50 was over 7.00.

`COc1ccc(-n2cc3cnc(NCC(F)(F)F)nc3c(-c3ccc(N4CCC4)cc3)c2=O)cc1` [Example 204, 8-(4-(azetidin-1-yl)phenyl)-6-(4-methoxyphenyl)-2-((2,2,2-trifluoroethyl)amino)pyrido[4,3-d]pyrimidin-7(6H)-one]: the pIC50 is 6.00 to 7.00.

For the compound `O=c1c(-c2ccc(C3CC3)cc2)c2nc(NCC(F)(F)F)ncc2cn1-c1ccc2nc(C(F)(F)F)ccc2c1` [Example 163, 8-(4-cyclopropylphenyl)-2-((2,2,2-trifluoroethyl)amino)-6-(2-(trifluoromethyl)quinolin-6-yl)pyrido[4,3-d]pyrimidin-7(6H)-one], the pIC50 was 5.00 to 6.00.

As to `O=C1N(c2cnoc2)Cc2cnc(NCC3CC3)nc2C12CCN(Cc1cscn1)C2` (stereo not shown) [Example 107, 2-((cyclopropylmethyl)amino)-6-(isoxazol-4-yl)-1′-(thiazol-4-ylmethyl)-5H-spiro[pyrido[4,3-d]pyrimidine-8,3′-pyrrolidin]-7(6H)-one], the pIC50 was 5.00 to 6.00.

With `Cc1ccc2cc(-n3cc4cnc(NCC(F)(F)F)nc4c(-c4ccc(C5CC5)cc4)c3=O)ccc2n1` [Example 162, 8-(4-cyclopropylphenyl)-6-(2-methylquinolin-6-yl)-2-((2,2,2-trifluoroethyl)amino)pyrido[4,3-d]pyrimidin-7(6H)-one], the pIC50 is over 7.00.

In the case of `O=c1c(-c2ccc(OC(F)F)cc2)c2nc(N3CCC3)ncc2cn1-c1ccc2ncccc2c1` [Example 185, 2-(azetidin-1-yl)-8-(4-(difluoromethoxy)phenyl)-6-(quinolin-6-yl)pyrido[4,3-d]pyrimidin-7(6)-one], the pIC50 was 5.00 to 6.00.

For the compound `O=c1c(-c2ccc(OC(F)F)cc2)c2nc(NCC(F)(F)F)ncc2cn1-c1ccc2nn(C3CC3)cc2c1` [Example 154, 6-(2-cyclopropyl-2H-indazol-5-yl)-8-(4-(difluoromethoxy)phenyl)-2-((2,2,2-trifluoroethyl)amino)pyrido[4,3-d]pyrimidin-7(6H)-one], the pIC50 is over 7.00.
